Earlier results in patent publication US20140248345A1 (Merck Sharp & Dohme Corp., priority 2011, published 2014).

Test system: human Type 2 diabetics
Settings: oral administration

| Structure (SMILES) | HbA1c levels | fasting glucose and postprandial glucose excursion |
| --- | --- | --- |
| N[C@@H](CC(=O)N1CCn2c(nnc2C(F)(F)F)C1)Cc1cc(F)c(F)cc1F [sitagliptin, (2R)-4-oxo-4-[3-(trifluoromethyl)-5,6-dihydro[1,2,4]triazolo[4,3-a]pyrazin-7(8H)-yl]-1-(2,4,5-trifluorophenyl)butan-2-amine] | significantly reduced | reduce fasting glucose and postprandial glucose excursion |
| N#C[C@@H]1CCCN1C(=O)CNC12CC3CC(CC(O)(C3)C1)C2 [vildagliptin, (S)-1-[(3-hydroxy-1-adamantyl)amino]acetyl-2-cyano-pyrrolidine] | significantly reduced | reduce fasting glucose and postprandial glucose excursion |
